Reference: patent US12435044B2, “Pyridazinone herbicides and pyridazinone intermediates used to prepare a herbicide” (FMC Corporation, priority 2018, dated 2025)

Key:
Type in all cases: in vivo
[1] = test system: pigweed (Amaranthus retroflexus); experiment: Test A pre-/postemergence greenhouse test
Excerpt: (§1) Seeds of plant species selected from barnyardgrass (Echinochloa crus-galli), kochia (Kochia scoparia), ragweed (common ragweed, Ambrosia elatior), ryegrass, Italian (Lolium multiflorum), foxtail, giant (Setaria faberii), foxtail, green (Setaria viridis) and pigweed (Amaranthus retroflexus) were planted into a blend of loam soil and sand and treated preemergence with a directed soil spray using test chemicals formulated in a non-phytotoxic solvent mixture which included a surfactant.
(§2) At the same time, plants selected from these weed species and also wheat (Triticum aestivum), corn (Zea mays), blackgrass (Alopecurus myosuroides) and galium (catchweed bedstraw, Galium aparine) were planted in pots containing the same blend of loam soil and sand and treated with postemergence applications of test chemicals formulated in the same manner. Plants ranged in height from 2 to 10 cm and were in the one- to two-leaf stage for the postemergence treatment. Treated plants and untreated controls were maintained in a greenhouse for approximately 10 d, after which time all treated plants were compared to untreated controls and visually evaluated for injury. Plant response ratings, summarized in Table A, are based on a 0 to 100 scale where 0 is no effect and 100 is complete control. A dash (-) response means no test result.

[2] = test system: ryegrass, Italian (Lolium multiflorum); experiment: Test A pre-/postemergence greenhouse test
Excerpt: as §1, §2

[3] = test system: barnyardgrass (Echinochloa crus-galli); experiment: Test A pre-/postemergence greenhouse test
Excerpt: as §1, §2

kochia (Kochia scoparia) [4] = experiment: Test A pre-/postemergence greenhouse test
Excerpt: as §1, §2

[5] = test system: ragweed (common ragweed, Ambrosia elatior); experiment: Test A pre-/postemergence greenhouse test
Excerpt: as §1, §2

[6] = test system: galium (catchweed bedstraw, Galium aparine); experiment: Test D pre-/postemergence controlled growth environment test
Excerpt: (§3) Seeds of plant species selected from blackgrass (Alopecurus myosuroides), galium (catchweed bedstraw, Galium aparine), kochia (Kochia scoparia), oilseed rape (Brassica napus), barley, spring (Hordeum vulgare), wheat, spring (Triticum aestivum), oat, wild (Avena fatua), barley, winter (Hordeum vulgare) and wheat, winter (Triticum aestivum) were planted into a silt loam soil and treated preemergence with test chemicals formulated in a non-phytotoxic solvent mixture which included a surfactant.
(§4) At the same time, plants selected from these crop and weed species and also bluegrass (annual bluegrass, Poa annua), canarygrass (littleseed canarygrass, Phalaris minor), chickweed (common chickweed, Stellaria media), bromegrass, downy (downy bromegrass, Bromus tectorum), field poppy (Papaver rhoeas), field violet (Viola arvensis), foxtail, green (Setaria viridis), deadnettle (henbit deadnettle, Lamium amplexicaule), ryegrass, Italian (Lolium multiflorum), lambsquarters (Chenopodium album), pigweed (Amaranthus retroflexus), chamomile (scentless chamomile, Matricaria inodora), Russian thistle (Salsola kali), speedwell (bird's-eye speedwell, Veronica persica), buckwheat, wild (Polygonum convolvulus), mustard, wild (Sinapis arvensis), radish, wild (Raphanus raphanistrum), windgrass (Apera spica-venti), geranium, cutleaf (Geranium dissectum) and Canada thistle (Cirsium arvense) were planted in pots containing Redi-Earth® planting medium (Scotts Company, 14111 Scottslawn Road, Marysville, Ohio 43041) comprising spaghnum peat moss, vermiculite, wetting agent and starter nutrients and treated with postemergence applications of the test chemicals formulated in the same manner. Plants ranged in height from 2 to 18 cm (1- to 4-leaf stage). Treated plants and controls were maintained in a controlled growth environment for 14 to 21 d after which time all species were compared to controls and visually evaluated. Plant response ratings, summarized in Table D, are based on a scale of 0 to 100 where 0 is no effect and 100 is complete control. A dash (-) response means no test result.

[7] = test system: oilseed rape (Brassica napus); experiment: as above
Excerpt: as §3, §4

[8] = test system: barley, spring (Hordeum vulgare); experiment: as above
Excerpt: as §3, §4

[9] = test system: blackgrass (Alopecurus myosuroides); experiment: as above
Excerpt: as §3, §4

kochia (Kochia scoparia) [10] = experiment: as above
Excerpt: as §3, §4

[11] = test system: wheat, spring (Triticum aestivum); experiment: as above
Excerpt: as §3, §4

[12] = test system: barley, winter (Hordeum vulgare); experiment: as above
Excerpt: as §3, §4

oat, wild (Avena fatua) = experiment: as above
Excerpt: as §3, §4

[13] = test system: wheat, winter (Triticum aestivum); experiment: as above
Excerpt: as §3, §4

For `Cc1cc(Cl)c2ccccc2c1-c1c(O)c(Cl)nn(C)c1=O` [Cpd. No. 65], the “Plant response rating (0 to 100 scale)” value ([1]; Postemergence, 31 g ai/ha) was 100, the “Plant response rating (0 to 100 scale)” value ([1]; Postemergence, 125 g ai/ha) was 100 and the “Plant response rating (0 to 100 scale)” value ([1]; Preemergence, 31 g ai/ha) was 100. The “Plant response rating (0 to 100 scale)” value ([1]; Preemergence, 125 g ai/ha) was 100, the “Plant response rating (0 to 100 scale)” value ([2]; Postemergence, 31 g ai/ha) was 100 and the “Plant response rating (0 to 100 scale)” value ([2]; Postemergence, 125 g ai/ha) was 100. The “Plant response rating (0 to 100 scale)” value ([2]; Preemergence, 31 g ai/ha) was 100, the “Plant response rating (0 to 100 scale)” value ([2]; Preemergence, 125 g ai/ha) was 100 and the “Plant response rating (0 to 100 scale)” value ([3]; Postemergence, 31 g ai/ha) was 100. The “Plant response rating (0 to 100 scale)” value ([3]; Postemergence, 125 g ai/ha) was 100, the “Plant response rating (0 to 100 scale)” value ([3]; Preemergence, 31 g ai/ha) was 100 and the “Plant response rating (0 to 100 scale)” value ([3]; Preemergence, 125 g ai/ha) was 100. The “Plant response rating (0 to 100 scale)” value (kochia (Kochia scoparia) [4]; Postemergence, 31 g ai/ha) was 80, the “Plant response rating (0 to 100 scale)” value (kochia (Kochia scoparia) [4]; Postemergence, 125 g ai/ha) was 100 and the “Plant response rating (0 to 100 scale)” value (kochia (Kochia scoparia) [4]; Preemergence, 31 g ai/ha) was 0. For the same molecule, the “Plant response rating (0 to 100 scale)” value (kochia (Kochia scoparia) [4]; Preemergence, 125 g ai/ha) was 80, the “Plant response rating (0 to 100 scale)” value ([5]; Postemergence, 31 g ai/ha) was 100 and the “Plant response rating (0 to 100 scale)” value ([5]; Postemergence, 125 g ai/ha) was 100. For the same molecule, the “Plant response rating (0 to 100 scale)” value ([5]; Preemergence, 31 g ai/ha) was 100, the “Plant response rating (0 to 100 scale)” value ([5]; Preemergence, 125 g ai/ha) was 100 and the “Plant response rating, Galium” value ([6]; Postemergence, 16 g ai/ha) was 85. For the same molecule, the “Plant response rating, Galium” value ([6]; Postemergence, 31 g ai/ha) was 97, the “Plant response rating, Galium” value ([6]; Postemergence, 62 g ai/ha) was 97 and the “Plant response rating, Galium” value ([6]; Postemergence, 125 g ai/ha) was 98. For the same molecule, the “Plant response rating, Galium” value ([6]; Preemergence, 16 g ai/ha) was 13, the “Plant response rating, Galium” value ([6]; Preemergence, 31 g ai/ha) was 82 and the “Plant response rating, Galium” value ([6]; Preemergence, 62 g ai/ha) was 98. For the same molecule, the “Plant response rating, Galium” value ([6]; Preemergence, 125 g ai/ha) was 100, the “Plant response rating, Oilseed Rape” value ([7]; Postemergence, 16 g ai/ha) was 85 and the “Plant response rating, Oilseed Rape” value ([7]; Postemergence, 31 g ai/ha) was 87. For the same molecule, the “Plant response rating, Oilseed Rape” value ([7]; Postemergence, 62 g ai/ha) was 90, the “Plant response rating, Oilseed Rape” value ([7]; Postemergence, 125 g ai/ha) was 100 and the “Plant response rating, Oilseed Rape” value ([7]; Preemergence, 16 g ai/ha) was 0. For the same molecule, the “Plant response rating, Oilseed Rape” value ([7]; Preemergence, 31 g ai/ha) was 18, the “Plant response rating, Oilseed Rape” value ([7]; Preemergence, 62 g ai/ha) was 85 and the “Plant response rating, Oilseed Rape” value ([7]; Preemergence, 125 g ai/ha) was 100. The “Plant response rating, Barley, Spring” value ([8]; Postemergence, 16 g ai/ha) was 57, the “Plant response rating, Barley, Spring” value ([8]; Postemergence, 31 g ai/ha) was 78 and the “Plant response rating, Barley, Spring” value ([8]; Postemergence, 62 g ai/ha) was 88. The “Plant response rating, Barley, Spring” value ([8]; Postemergence, 125 g ai/ha) was 93, the “Plant response rating, Barley, Spring” value ([8]; Preemergence, 16 g ai/ha) was 0 and the “Plant response rating, Barley, Spring” value ([8]; Preemergence, 31 g ai/ha) was 3. For the same molecule, the “Plant response rating, Barley, Spring” value ([8]; Preemergence, 62 g ai/ha) was 5, the “Plant response rating, Barley, Spring” value ([8]; Preemergence, 125 g ai/ha) was 73 and the “Plant response rating, Blackgrass” value ([9]; Postemergence, 16 g ai/ha) was 83. For the same molecule, the “Plant response rating, Blackgrass” value ([9]; Postemergence, 31 g ai/ha) was 90, the “Plant response rating, Blackgrass” value ([9]; Postemergence, 62 g ai/ha) was 93 and the “Plant response rating, Blackgrass” value ([9]; Postemergence, 125 g ai/ha) was 95. The “Plant response rating, Blackgrass” value ([9]; Preemergence, 16 g ai/ha) was 13, the “Plant response rating, Blackgrass” value ([9]; Preemergence, 31 g ai/ha) was 23 and the “Plant response rating, Blackgrass” value ([9]; Preemergence, 62 g ai/ha) was 63. The “Plant response rating, Blackgrass” value ([9]; Preemergence, 125 g ai/ha) was 90, the “Plant response rating, Kochia” value (kochia (Kochia scoparia) [10]; Postemergence, 16 g ai/ha) was 35 and the “Plant response rating, Kochia” value (kochia (Kochia scoparia) [10]; Postemergence, 31 g ai/ha) was 50. For the same molecule, the “Plant response rating, Kochia” value (kochia (Kochia scoparia) [10]; Postemergence, 62 g ai/ha) was 75, the “Plant response rating, Kochia” value (kochia (Kochia scoparia) [10]; Postemergence, 125 g ai/ha) was 90 and the “Plant response rating, Kochia” value (kochia (Kochia scoparia) [10]; Preemergence, 16 g ai/ha) was 12. For the same molecule, the “Plant response rating, Kochia” value (kochia (Kochia scoparia) [10]; Preemergence, 31 g ai/ha) was 22, the “Plant response rating, Kochia” value (kochia (Kochia scoparia) [10]; Preemergence, 62 g ai/ha) was 72 and the “Plant response rating, Kochia” value (kochia (Kochia scoparia) [10]; Preemergence, 125 g ai/ha) was 93. For the same molecule, the “Plant response rating, Wheat, Spring” value ([11]; Postemergence, 16 g ai/ha) was 90, the “Plant response rating, Wheat, Spring” value ([11]; Postemergence, 31 g ai/ha) was 93 and the “Plant response rating, Wheat, Spring” value ([11]; Postemergence, 62 g ai/ha) was 93. For the same molecule, the “Plant response rating, Wheat, Spring” value ([11]; Postemergence, 125 g ai/ha) was 93, the “Plant response rating, Wheat, Spring” value ([11]; Preemergence, 16 g ai/ha) was 63 and the “Plant response rating, Wheat, Spring” value ([11]; Preemergence, 31 g ai/ha) was 78. The “Plant response rating, Wheat, Spring” value ([11]; Preemergence, 62 g ai/ha) was 90, the “Plant response rating, Wheat, Spring” value ([11]; Preemergence, 125 g ai/ha) was 100 and the “Plant response rating, Barley, Winter” value ([12]; Postemergence, 16 g ai/ha) was 60. For the same molecule, the “Plant response rating, Barley, Winter” value ([12]; Postemergence, 31 g ai/ha) was 72, the “Plant response rating, Barley, Winter” value ([12]; Postemergence, 62 g ai/ha) was 83 and the “Plant response rating, Barley, Winter” value ([12]; Postemergence, 125 g ai/ha) was 90. For the same molecule, the “Plant response rating, Barley, Winter” value ([12]; Preemergence, 16 g ai/ha) was 0, the “Plant response rating, Barley, Winter” value ([12]; Preemergence, 31 g ai/ha) was 3 and the “Plant response rating, Barley, Winter” value ([12]; Preemergence, 62 g ai/ha) was 7. For the same molecule, the “Plant response rating, Barley, Winter” value ([12]; Preemergence, 125 g ai/ha) was 23, the “Plant response rating, Oat, Wild” value (oat, wild (Avena fatua); Postemergence, 16 g ai/ha) was 92 and the “Plant response rating, Oat, Wild” value (oat, wild (Avena fatua); Postemergence, 31 g ai/ha) was 92. The “Plant response rating, Oat, Wild” value (oat, wild (Avena fatua); Postemergence, 62 g ai/ha) was 96, the “Plant response rating, Oat, Wild” value (oat, wild (Avena fatua); Postemergence, 125 g ai/ha) was 99 and the “Plant response rating, Oat, Wild” value (oat, wild (Avena fatua); Preemergence, 16 g ai/ha) was 28. For the same molecule, the “Plant response rating, Oat, Wild” value (oat, wild (Avena fatua); Preemergence, 31 g ai/ha) was 80, the “Plant response rating, Oat, Wild” value (oat, wild (Avena fatua); Preemergence, 62 g ai/ha) was 83 and the “Plant response rating, Oat, Wild” value (oat, wild (Avena fatua); Preemergence, 125 g ai/ha) was 97. For the same molecule, the “Plant response rating, Wheat, Winter” value ([13]; Postemergence, 16 g ai/ha) was 85, the “Plant response rating, Wheat, Winter” value ([13]; Postemergence, 31 g ai/ha) was 90 and the “Plant response rating, Wheat, Winter” value ([13]; Postemergence, 62 g ai/ha) was 90. The “Plant response rating, Wheat, Winter” value ([13]; Postemergence, 125 g ai/ha) was 92, the “Plant response rating, Wheat, Winter” value ([13]; Preemergence, 16 g ai/ha) was 23 and the “Plant response rating, Wheat, Winter” value ([13]; Preemergence, 31 g ai/ha) was 67. For the same molecule, the “Plant response rating, Wheat, Winter” value ([13]; Preemergence, 62 g ai/ha) was 80 and the “Plant response rating, Wheat, Winter” value ([13]; Preemergence, 125 g ai/ha) was 93.
